Assay results taken from patent US10494404B2, “Quinolinium conjugates of cyclosporin” (priority 2014, dated 2019).

Columns and labels:
[1] = test system: Ca^2+ mediated PT pore formation; assay: Calcium retention capacity (CRC) assay, isolated WT mouse liver mitochondria; type: biochemical
Source text: In order to assess the efficiency of compounds on Ca^2+ mediated PT pore formation we measured calcium retention capacity (CRC) of isolated mouse liver mitochondria. […] Energised mitochondria take up Ca^2+, resulting in a declining fluorescent signal following the Ca^2+ bolus induced peak. Mitochondria take up and buffer Ca^2+ up to a threshold when intramitochondrial [Ca^2+] reaches threshold to induce PT. […] The amount of Ca^2+ required to induce PT characterizes its Ca^2+ sensitivity and defines mitochondrial CRC. Inhibition of CypD, the Ca^2+ sensor of PT, thus leads to increased CRC.
Further experiments were carried out using the techniques discussed in Example 4.
(§1) Subcellular fractionation was performed as previously described (Astin et al, 2013). […] At 4° C., the liver was rinsed in PBS to remove excess blood, and any fat and connective tissue was eliminated. PBS was then replaced with isolation buffer containing 1 mM PMSF, and the liver was chopped into pieces (approximately 2 mm in length). Tissue was then homogenized in this solution until no solid matter remained, and then centrifuged at 800G for 10 minutes at 4° C. The nuclear pellet was then discarded, and the post nuclear supernatant retained, and centrifuged at 10300G for another 10 minutes at 4° C. The postmitochondrial supernatant was discarded, and the mitochondrial pellet was resuspended in isolation buffer and PMSF, and kept on ice. Protein levels were quantified using a ThermoScientific BCA protein quantification assay, as per manufacturer's instructions.
Isolated mitochondria were resuspended (500 μg protein/ml) in MSK buffer (75 mM mannitol, 25 mM sucrose, 5 mM potassium phosphate monobasic, 20 mM Tris-HCl, 100 mM KCl, and 0.1% bovine serum albumin, pH 7.4) supplemented with 10 mM succinate, 1 μM rotenone and 1 μM Fluo5N. 200 μl mitochondrial suspension per well was used in 96 well microplates. Compounds were incubated for ten minutes before the plate was assayed in a Fluostar Optima plate reader, using Ex/Em filters at 480/520 […]; CaCl2 was injected approximately every 6.5 minutes for 80 minutes (12 total injections, final concentration of 75 μM). To calculate % inhibition of Ca^2+ induced pore opening, first areas under each curve were calculated, and controls without CaCl2 addition were subtracted as background. The background corrected values were then expressed as the fraction of controls without mitochondria, representing the total amount of Ca^2+ added, unbuffered by mitochondria. Percentage inhibition for each [compound] was then calculated as the % of the corresponding value for the untreated condition. […] For experiments with CypD −/− mice, 100 ul mitochondrial suspension per well was used. CaCl2) was injected approximately every 6.5 minutes for 135 minutes (20 total injections, final concentration of 266 μM). Data were background corrected and expressed as the fraction of controls without mitochondria, and then normalised to the wild type no drug condition. Significance was assessed by one way ANOVA.

[2] = test system: Ca^2+ mediated PT pore formation (CypD KO mitochondria); assay: Calcium retention capacity (CRC) assay, liver mitochondria from CypD knockout mice; type: biochemical, mouse
Experimental: as §1, with “The postmitochondrial supernatant was discarded, and the mitochondrial pellet was resuspended in isolation buffer and PMSF, and kept on ice.” left out
Isolated mitochondria were resuspended (500 μg protein/ml) in MSK buffer (75 mM mannitol, 25 mM sucrose, 5 mM potassium phosphate monobasic, 20 mM Tris-HCl, 100 mM KCl, and 0.1% bovine serum albumin, pH 7.4) supplemented with 10 mM succinate, 1 μM rotenone and 1 μM Fluo5N. […] Compounds were incubated for ten minutes before the plate was assayed in a Fluostar Optima plate reader, using Ex/Em filters at 480/520 […]; CaCl2 was injected approximately every 6.5 minutes for 80 minutes (12 total injections, final concentration of 75 μM). […] Percentage inhibition for each [compound] was then calculated as the % of the corresponding value for the untreated condition. […]

[3] = test system: DIV 8-9 rat cortical neurons; assay: Mitochondrial functional parameters in DIV 8-9 rat cultured cortical neurons; type: cell-based; conditions: Compound 1 up to 200 nM, CsA up to 1 μM
Experimental: The minimum value after the addition of compound (prior to the addition of FCCP) was taken, and this was expressed as a % (using baseline as 100% and FCCP as 0%), and then normalized to DMSO (100%). Significance was assessed by one-way ANOVA, in comparison to DMSO control.
(§2) Freshly isolated mitochondria were resuspended in MSK buffer (containing 10 mM glutamate and 2 mM malate) at 1 mg/ml and plated in opaque white 96 well plates, or for neuronal assays, neurons were used 9 days after plating at 15000 cells/well. Drugs were added at the concentrations specified, and for mitochondrial assays were incubated for ten minutes before addition of ADP (5 mM), followed by another 45 minutes. For neuronal assays, drugs were added in neurobasal medium and incubated for 60 minutes. Cell Titer Glo reagent was then added, and the plate shaken for 2 minutes in the dark to lyse cells/mitochondria and release ATP. The plates were incubated a further ten minutes and then luminescence values read using an Optima FluoStar.

[4] = test system: isolated rat liver mitochondria; assay: Mitochondrial functional parameters in isolated liver mitochondria; type: biochemical; conditions: Compound 1 up to 200 nM, CsA up to 1 μM
Experimental: Oxygen consumption was measured using Oroboros Oxygraph-2K as previously described (Astin et al, 2013). Prior to the assay, the Oxygraph chambers were calibrated with Miro5 buffer (0.5 mM EGTA, 3 mM MgCl2.6H2O, 60 mM K-lactobionate, 20 mM taurine, 10 mM KH2PO4, 20 mM HEPES, 110 mM sucrose, 1 g/l BSA (essentially fatty acid free)). Isolated mitochondria were suspended in Miro5 (at 100-200 μg/ml), loaded into the chamber together with substrates (malate, 2 mM; glutamate, 10 mM), and the O2 flow signal was allowed to stabilise to the basal respiration rate (approx. 10 min).
Freshly isolated mouse liver mitochondria were suspended in MSK buffer containing 10 ug/ml rhodamine123 (dequench mode), at a concentration of 500 ug/ml, and plated in an opaque black 96 well plate. Baseline fluorescence was then measured every 60 seconds for 5 minutes in a Fluostar Optima (Ex480/Em520) before manual addition of compounds (concentrations as specified). Fluorescence measurements were continued for 45 minutes until the addition of 2 uM FCCP, followed by a further 10 minutes of fluorescence readings.
as §2

[5] = test system: T cell proliferative response in the draining auricular lymph node; assay: Oxazolone contact hypersensitivity model, in vivo T cell proliferation; parameters: species or system mouse
Experimental: To identify non-immunosuppressive doses of potential neuroprotective compounds for use in models of MS (Al-Izki et al, 2014) we employed a model using epicutaneous application of the ear skin sensitizer, oxazolone, to induce a T cell proliferative response in the draining auricular lymph node peaking 3 days later (Baker et al, 2011).
The contact sensitiser 4-ethoxymethylene-2-phenyl-2-oxazolin-5-one (oxazolone, OX, Sigma) was dissolved (25 mg/ml) in 4:1 acetone:olive oil (AOO). Mice (n=3 per group) received epicutaneous application of either 25 μl of 2.5% OX or AOO on the dorsum of the ear on day 0 (O'Neill et al, 1992). The draining auricular lymph nodes were removed three days later and the induced proliferative response was assessed as previously described. Briefly, 5×10^5 cells per well were cultured in RPMI-1640 medium with glutamate (Gibco®, Invitrogen Ltd, Paisley UK), supplemented with 0.5 mM sodium, in round-bottomed 96 well plates overnight at 37° C. in a humidified atmosphere of 5% CO2. In the presence of 1 μCi^3H-thymidine (PerkinElmer, Mass., USA) per well. […] Results are expressed as mean±SEM thymidine incorporation counts per minute (CPM)

SMILES: CC[C@@H]1NC(=O)[C@H]([C@H](O)[C@H](C)C/C=C/CCC[n+]2cccc3ccccc32)N(C)C(=O)[C@H](C(C)C)N(C)C(=O)[C@H](CC(C)C)N(C)C(=O)[C@H](CC(C)C)N(C)C(=O)[C@@H](C)NC(=O)[C@H](C)NC(=O)[C@H](CC(C)C)N(C)C(=O)[C@H](C(C)C)NC(=O)[C@H](CC(C)C)N(C)C(=O)CN(C)C1=O [Compound 1, [Gly-(1S,2R,E)-8-quinolinium-1-hydroxy-2-methyloct-4-ene]^1 CsA]
- effect on CRC [2]: Neither CsA nor Compound 1 had any effect
- mitochondrial membrane potential ([3]; TMRM): Neither mitochondrial membrane potential (FIG. 4A,B), oxygen consumption (FIG. 4C, D) and ATP production (FIG. 4E, F) were affected
- ATP levels / ATP production ([3]; luciferase assay): Neither mitochondrial membrane potential (FIG. 4A,B), oxygen consumption (FIG. 4C, D) and ATP production (FIG. 4E, F) were affected
- ATP production ([4]; isolated mitochondria with substrates and ADP): Neither mitochondrial membrane potential (FIG. 4A,B), oxygen consumption (FIG. 4C, D) and ATP production (FIG. 4E, F) were affected
- oxygen consumption ([4]; isolated mitochondria, glutamate and malate): Neither mitochondrial membrane potential (FIG. 4A,B), oxygen consumption (FIG. 4C, D) and ATP production (FIG. 4E, F) were affected
- mitochondrial membrane potential ([4]; isolated mitochondria, rhodamine-123): Neither mitochondrial membrane potential (FIG. 4A,B), oxygen consumption (FIG. 4C, D) and ATP production (FIG. 4E, F) were affected
- effect on T cell response ([5]; daily 0.1 mg/kg i.p.): had no effect
- effect on T cell response ([5]; daily 1 mg/kg i.p.): had no effect
- effect on T cell response ([5]; daily 10 mg/kg i.p.): inhibited the T cell response
